Changes are numbered by the printed parent chain. “And” between values parts separate entries of the source, which are not always exact repeats. Equal entries are not always repeated.
Columns and labels:
[1] = target: T1, murine PGP-WT / PGP-C297S (Mus musculus, UniProt Q8CHP8); experiment: Size-exclusion chromatography, PGP self-association; settings: SEC, PGP-WT 30 µM; CP1 100 µM
T1 construct: His6 (N, cleaved yes); made in house; host or cells: Escherichia coli BL21 (DE3)
T1 sequence (Q8CHP8 1-321): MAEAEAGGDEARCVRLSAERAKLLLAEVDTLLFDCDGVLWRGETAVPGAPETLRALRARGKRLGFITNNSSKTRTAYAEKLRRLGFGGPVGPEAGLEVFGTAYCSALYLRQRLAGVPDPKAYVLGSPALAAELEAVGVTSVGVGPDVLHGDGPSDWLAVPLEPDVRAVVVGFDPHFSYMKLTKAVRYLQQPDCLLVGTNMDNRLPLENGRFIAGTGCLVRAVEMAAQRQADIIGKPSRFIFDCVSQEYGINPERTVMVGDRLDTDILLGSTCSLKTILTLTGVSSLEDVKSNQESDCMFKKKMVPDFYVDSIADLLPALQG
Procedure: A volume of 900 µL was loaded onto a Superdex 200 10/300GL (Cytiva) size exclusion chromatography column operated on an ÄKTA liquid chromatography system.
Error bars not shown are hidden by the symbols. (c) PGP self-association in the absence or presence of CP1. Size- exclusion chromatography (SEC) of purified, recombinant murine PGP-WT in comparison to PGP-C297 […]
(1 picture or pasted object on this page, not shown here)
(100 µM). SEC profiles of PGP -WT are the mean of n=3 independent experiments; PGP -C297S […]
independent experiments. Statistical testing was done using a two-sided t-test, and the p- value

[2] = target: T2, murine PGP-P127E (Mus musculus, UniProt Q8CHP8, P127E); experiment: Isothermal titration calorimetry, PGP-P127E; type: binding; settings: ITC
T2 construct: His6 (N, cleaved yes); made in house; host or cells: Escherichia coli BL21 (DE3), pETM-11
T2 sequence (Q8CHP8 1-321 P127E): T1 sequence (Q8CHP8 1-321) with P127E

[3] = target: T3, PGP^S71R (Mus musculus, UniProt Q8CHP8, S71R); settings: read-out: enzyme activity in presence of CP1 relative to DMSO control (1), mPGP-S71R, Exp #1-#3
T3 sequence (Q8CHP8 1-321 S71R): T1 sequence (Q8CHP8 1-321) with S71R

[4] = target: T4, NANP/HDHD4 (Mus musculus, UniProt Q9CPT3); experiment: In vitro phosphatase activity assay, NANP/HDHD4 (6-phosphogluconate); type: biochemical, murine; settings: NANP activity on 6-phosphogluconate
T4 construct: made in house; host or cells: Escherichia coli BL21 (DE3), pETM11 (cDNA from Origene #MR203153)
T4 sequence (Q9CPT3 1-248): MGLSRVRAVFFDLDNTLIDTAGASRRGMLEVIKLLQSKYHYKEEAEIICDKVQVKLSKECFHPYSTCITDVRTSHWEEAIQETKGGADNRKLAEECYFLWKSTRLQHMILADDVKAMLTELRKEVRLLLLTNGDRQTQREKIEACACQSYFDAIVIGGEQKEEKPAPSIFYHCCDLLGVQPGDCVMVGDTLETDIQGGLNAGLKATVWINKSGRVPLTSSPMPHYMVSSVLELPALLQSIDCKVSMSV
Excerpt: The following phosphatase constructs (in pCMV6) were purchased from Origene: murine LHPP (NM_029609; catalog #MC211738), murine LPIN1, transcript variant 2 (NM_015763, #MC204460), murine MDP1 (NM_023397, #MR201315), murine […]_026086, #MR203153), murine NT5C (NM_015807, #MR202028), human NT5M (NM_020201, #RC207737), murine PNKP (NM_021549, #MR207938), and murine PSPH (NM_133900, #MR202626). Purified human NT5C1A (NM_032526, #TP324617) and purified human PHOSPHO1 (NM_178500, #TP314434) were from Origene. The murine PHOSPHO2 construct (in pFLCI) was from Source BioScience (clone ID: I420023L04). Calf intestinal alkaline phosphatase (CIP) was from NEB. Purified, recombinant human calcineurin (PP2B) and human PTP1B (residues 1-322) were from Millipore (#207005 or #539736, respectively). […] The 3'-P-oligonucleotide 5'-[NT]^3-]-3' was used as a PNKP substrate. […] Data were analyzed with GraphPad Prism 7.04. […] (c) Upper panel, purity of the tested, recombinant phosphatases (10 μg of protein/lane). A Coomassie Blue-stained gel is shown. Tested enzymes that are not included in this panel were obtained commercially. Lower panel , Western blots showing the overexpression of the myc-tagged cytosolic 5', 3'-nucleotidase NT5C and mitochondrial 5', 3'-nucleotidase NT5M in HEK293 cells (uncropped blots in Source Data). […] Error bars not shown are hidden by the symbols. […]

Row | IC50 [4] | SMILES | max. peak height of PGP tetramer/PGP total [1] | n, stoichiometry [2] | Kd ([2]; […]) | remaining activity at 39.81 µM ([3]; CP1 log[M] -4.40) | remaining activity at 19.95 µM ([3]; CP1 log[M] -4.70) | remaining activity at 10 µM ([3]; CP1 log[M] -5.00) | remaining activity at 5.012 µM ([3]; CP1 log[M] -5.30) | remaining activity at 2.512 µM ([3]; CP1 log[M] -5.60) | remaining activity at 0.631 µM ([3]; CP1 log[M] -6.20) | remaining activity at […] ([3]; CP1 log[M] -6.51) | remaining activity at 0.1549 µM ([3]; CP1 log[M] -6.81)
1 |  | O=C(Nc1ccccc1C(=O)O)c1ccc(Oc2ccc(C(=O)Nc3ccccc3C(=O)O)cc2)cc1 [CP1] | 0.166 and 0.138 and 0.1887 | 1.15 ± 0.04 | 11.9 ± 0.41 µM | 25% | 38% | 50% | 68% | 81% | 95% | 100% | 92%
2 | ~1 µM | COc1ccc(C(=O)Nc2ccc(Cc3ccc(NC(=O)c4ccc(OC)c(OC)c4)c(C(=O)O)c3)cc2C(=O)O)cc1OC [CP2] |  |  |  |  |  |  |  |  |  |  | 

Reference: paper PMC9652372, “Glycolytic flux control by drugging phosphoglycolate phosphatase” (Nature Communications, 2022)
